Source: patent US9247759B2, “Identification of human T2R receptors that respond to bitter compounds that elicit the bitter taste in compositions, and the use thereof in assays to identify compounds that inhibit (block) bitter taste in compositions and use thereof” (SENOMYX, INC., priority 2007, dated 2016)
Where two headings read alike, the source gives them in different places.

Target: hT2R8 (Homo sapiens (Human), UniProt Q9NYW2)
Experiment: hT2R8 antagonist high-throughput FLIPR assay, stable cell line with G16g44, agonist andrographolide
Type: cell-based
Text: After a ligand is identified for a particular hT2R, a HEK293 cell line stably expressing both the hT2R and G16gust44 are generated, facilitating future screening assays to identify other ligands that activate the particular hT2R or which modulate (block or enhance) the activation of this hT2R by another bitter ligand such as a bitter compound contained in coffee. This avoids the need for transient transfection.
(§1) To identify antagonists, cell lines stably expressing hT2R8 and hT2R14, respectively, together with the promiscuous chimeric G16g44 protein were generated as described in previous patent applications. A high-throughput assay was established using the stable cell lines and FLIPR (Fluorescent Imaging Plate Reader). An agonist of hT2R8 or hT2R14 was used to activate the receptors up to 70-80% of their respective maximal activity. For hT2R8, the agonist used was andrographolide (200 λM); for hT2R14, it was aristolochic acid (3 μM). To identify antagonists, compounds with diverse chemical structures were added together with the agonist.
as §1, with “hT2R8” for “hT2R8 and hT2R14, respectively,”, “hT2R8” for “hT2R8 or hT2R14”, “(200” for “(200 λM); for hT2R14, it was aristolochic acid (3”

[1] = table after Example 12-37, read-out: hT2R8 IC50
[2] = read-out: IC50 on hT2R8 bitter receptor
[3] = table after Example 10-97, read-out: hT2R8 IC50
[4] = unit uM, read-out: IC50 on hT2R08 bitter receptor

Chain of hT2R8 (Q9NYW2 whole entry): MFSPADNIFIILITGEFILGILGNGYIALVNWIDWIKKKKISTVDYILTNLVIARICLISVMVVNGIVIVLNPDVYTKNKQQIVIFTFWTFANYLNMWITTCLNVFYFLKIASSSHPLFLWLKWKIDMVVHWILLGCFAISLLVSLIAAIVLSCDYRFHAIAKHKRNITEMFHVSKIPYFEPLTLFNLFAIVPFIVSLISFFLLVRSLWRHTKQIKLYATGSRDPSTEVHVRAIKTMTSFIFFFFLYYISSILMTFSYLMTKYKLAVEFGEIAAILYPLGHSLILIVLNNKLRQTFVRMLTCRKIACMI

IC50 [2]	IC50 [3]	IC50 (Table A, read-out: hT2R8 IC50)	other results	SMILES
			IC50 [1]: 0.2 µM	Cc1noc(C)c1Cn1cc(N2C(=O)N(CCc3ccccc3F)C(C)(C)C2=O)cn1 [Example 12-53, 3-(1-((3,5-dimethylisoxazol-4-yl)methyl)-1H-pyrazol-4-yl)-1-(2-fluorophenethyl)-5,5-dimethylimidazolidine-2,4-dione]
1 µM	0.999 µM			COc1ccnc(CN2CC(=O)N(c3cnn(Cc4c(C)noc4C)c3)C2=O)c1OC [Example 10-72, 1-((3,4-dimethoxypyridin-2-yl)methyl)-3-(1-((3,5-dimethylisoxazol-4-yl)methyl)-1H-pyrazol-4-yl)imidazolidine-2,4-dione]
		12.6 µM		COc1cccc(CN(Cc2cccc(OC)c2OC)c2cnn(Cc3c(C)noc3C)c2)c1OC [Example 4-64, N,N-bis(2,3-dimethoxybenzyl)-1-((3,5-dimethylisoxazol-4-yl)methyl)-1H-pyrazol-4-amine]
		0.1 µM		Cc1noc(C)c1Cn1cc(NC(=O)c2cc(Cl)c3c(c2)OCCO3)cn1 [Example 4-91, 8-chloro-N-(1-((3,5-dimethylisoxazol-4-yl)methyl)-1H-pyrazol-4-yl)-2,3-dihydrobenzo[b][1,4]dioxine-6-carboxamide]
		0.8 µM		CCc1nc2cc(C(=O)Nc3cnn(Cc4c(C)noc4C)c3)ccc2o1 [Example 4-81, N-(1-((3,5-dimethylisoxazol-4-yl)methyl)-1H-pyrazol-4-yl)-2-ethylbenzo[d]oxazole-5-carboxamide]
		1.63 µM		COc1ccc(OC)c(S(=O)(=O)Nc2cnn(Cc3c(C)noc3C)c2)c1 [Example 4-101, N-(1-((3,5-dimethylisoxazol-4-yl)methyl)-1H-pyrazol-4-yl)-2,5-dimethoxybenzenesulfonamide]
0.96 µM	0.962 µM			Cc1noc(C)c1Cn1cc(N2C(=O)NC(CC3CCCCC3)C2=O)cn1 (centres unmarked) [Example 10-57, 5-(cyclohexylmethyl)-3-(1-((3,5-dimethylisoxazol-4-yl)methyl)-1H-pyrazol-4-yl)imidazolidine-2,4-dione]
		2.28 µM		Cc1noc(C)c1Cn1cc(C(=O)NCc2cccs2)sc1=O [Example 4-116, 3-((3,5-dimethylisoxazol-4-yl)methyl)-2-oxo-N-(thiophen-2-ylmethyl)-2,3-dihydrothiazole-5-carboxamide]
0.04 µM	0.479 µM			Cc1noc(C)c1CN1CC(=O)N(c2cnn(Cc3c(C)noc3C)c2)C1=O [Example 10-55, 1-((3,5-dimethylisoxazol-4-yl)methyl)-3-(1-((3,5-dimethylisoxazol-4-yl)methyl)-1H-pyrazol-4-yl)imidazolidine-2,4-dione]
1.3 µM	1.33 µM			Cc1noc(C)c1Cn1cc(N2C(=O)NC(CC(=O)NCc3ccccc3)C2=O)cn1 (centres unmarked) [Example 10-49, N-benzyl-2-(1-(1-((3,5-dimethylisoxazol-4-yl)methyl)-1H-pyrazol-4-yl)-2,5-dioxoimidazolidin-4-yl)acetamide]
		3.8 µM		COc1ccccc1S(=O)(=O)Nc1cnn(Cc2c(C)noc2C)c1 [Example 4-103, N-(1-((3,5-dimethylisoxazol-4-yl)methyl)-1H-pyrazol-4-yl)-2-methoxybenzenesulfonamide]
		3.03 µM		Cc1cc(C(=O)Nc2cnn(Cc3c(C)noc3C)c2)c(C)o1 [Example 4-53, N-(1-((3,5-dimethylisoxazol-4-yl)methyl)-1H-pyrazol-4-yl)-2,5-dimethylfuran-3-carboxamide]
1.5 µM				Cc1noc(C)c1Cn1cc(-n2c(=O)[nH]c3ccccc3c2=O)cn1 [Example 9-4, 3-(1-((3,5-dimethylisoxazol-4-yl)methyl)-1H-pyrazol-4-yl)quinazoline-2,4(1H,3H)-dione]
			IC50 [1]: 0.56 µM	Cc1noc(C)c1Cn1cc(N2C(=O)N(CCO)C(C)(C)C2=O)cn1 [Example 12-77, 3-(1-((3,5-dimethylisoxazol-4-yl)methyl)-1H-pyrazol-4-yl)-1-(2-hydroxyethyl)-5,5-dimethylimidazolidine-2,4-dione]
			IC50 [1]: 2.31 µM	Cc1noc(C)c1Cn1cc(N2C(=O)N(Cc3ccc(C(=O)O)cc3)C(C)(C)C2=O)cn1 [Example 12-89, 4-((3-(1-((3,5-dimethylisoxazol-4-yl)methyl)-1H-pyrazol-4-yl)-5,5-dimethyl-2,4-dioxoimidazolidin-1-yl)methyl)benzoic acid]
0.34 µM				Cc1noc(C)c1Cn1cc(N2C(=O)N/C(=C\c3ccccc3)C2=O)cn1 [Example 10-63, (Z)-5-benzylidene-3-(1-((3,5-dimethylisoxazol-4-yl)methyl)-1H-pyrazol-4-yl)imidazolidine-2,4-dione]
	0.065 µM		IC50 [4]: 0.06 µM	Cc1ccc(CN2CC(=O)N(c3cnn(Cc4c(C)noc4C)c3)C2=O)cc1 [Example 10-30, 3-(1-((3,5-dimethylisoxazol-4-yl)methyl)-1H-pyrazol-4-yl)-1-(4-methylbenzyl)imidazolidine-2,4-dione]

IC50 [2]	IC50 [3]	IC50 (Table A, read-out: hT2R8 IC50)	other results	SMILES
0.68 µM	0.609 µM			Cc1noc(C)c1Cn1cc(N2C(=O)CN(Cc3ccccn3)C2=O)cn1 [Example 10-54, 3-(1-((3,5-dimethylisoxazol-4-yl)methyl)-1H-pyrazol-4-yl)-1-(pyridin-2-ylmethyl)imidazolidine-2,4-dione]
		7.87 µM		Cc1noc(C)c1Cn1cc(NC(=O)c2ccoc2C)cn1 [Example 4-51, N-(1-((3,5-dimethylisoxazol-4-yl)methyl)-1H-pyrazol-4-yl)-2-methylfuran-3-carboxamide]
1.4 µM	1.36 µM			Cc1noc(C)c1Cn1cc(N2C(=O)CN(CC3CCCO3)C2=O)cn1 (centres unmarked) [Example 10-73]
0.22 µM				Cc1noc(C)c1Cn1cc(N2C(=O)N(Cc3cccnc3)C(C)(C)C2=O)cn1 [Example 12-36, 3-(1-((3,5-dimethylisoxazol-4-yl)methyl)-1H-pyrazol-4-yl)-5,5-dimethyl-1-(pyridin-3-ylmethyl)imidazolidine-2,4-dione]
			IC50 [1]: 2.85 µM	Cc1noc(C)c1Cn1cc(N2C(=O)N(Cc3cccc(OCC(=O)O)c3)C(C)(C)C2=O)cn1 [Example 12-90, 2-(3-((3-(1-((3,5-dimethylisoxazol-4-yl)methyl)-1H-pyrazol-4-yl)-5,5-dimethyl-2,4-dioxoimidazolidin-1-yl)methyl)phenoxy)acetic acid]
	0.016 µM		IC50 [4]: 0.03 µM	CSc1ccccc1CN1CC(=O)N(c2cnn(Cc3c(C)noc3C)c2)C1=O [Example 10-15, 3-(1-((3,5-dimethylisoxazol-4-yl)methyl)-1H-pyrazol-4-yl)-1-(2-(methylthio)benzyl)imidazolidine-2,4-dione]
			IC50 [1]: 0.28 µM	COCc1ccc(CN2C(=O)N(c3cnn(Cc4c(C)noc4C)c3)C(=O)C2(C)C)cc1 [Example 12-92, 3-(1-((3,5-dimethylisoxazol-4-yl)methyl)-1H-pyrazol-4-yl)-1-(4-(methoxymethyl)benzyl)-5,5-dimethylimidazolidine-2,4-dione]
			IC50 [1]: 0.22 µM	COC(=O)c1cccc(CN2C(=O)N(c3cnn(Cc4c(C)noc4C)c3)C(=O)C2(C)C)c1 [Example 12-55]
		2.15 µM		Cc1ccccc1S(=O)(=O)Nc1cnn(Cc2c(C)noc2C)c1 [Example 4-102, N-(1-((3,5-dimethylisoxazol-4-yl)methyl)-1H-pyrazol-4-yl)-2-methylbenzenesulfonamide]
0.06 µM	0.057 µM			COCCn1c(=O)n(-c2cnn(Cc3c(C)noc3C)c2)c(=O)n1Cc1ccccc1 [Example 10-92, 1-benzyl-4-(1-((3,5-dimethylisoxazol-4-yl)methyl)-1H-pyrazol-4-yl)-2-(2-methoxyethyl)-1,2,4-triazolidine-3,5-dione]
		0.39 µM		COc1ccccc1C(=O)Nc1cnn(Cc2c(C)noc2C)c1 [Example 4-19, N-(1-((3,5-dimethylisoxazol-4-yl)methyl)-1H-pyrazol-4-yl)-2-methoxybenzamide]
	0.322 µM		IC50 [4]: 0.3 µM	Cc1noc(C)c1Cn1cc(N2C(=O)CN(Cc3cccc(CO)c3)C2=O)cn1 [Example 10-33, 3-(1-((3,5-dimethylisoxazol-4-yl)methyl)-1H-pyrazol-4-yl)-1-(3-(hydroxymethyl)benzyl)imidazolidine-2,4-dione]
0.25 µM				Cc1noc(C)c1Cn1cc(NC(=O)C2(c3ccccc3)CC2)cn1 [Example 4-11, N-(1-((3,5-dimethylisoxazol-4-yl)methyl)-1H-pyrazol-4-yl)-1-phenylcyclopropanecarboxamide]
0.58 µM	0.966 µM			Cc1noc(C)c1Cn1cc(N2C(=O)CN(C)C2=O)cn1 [Example 10-51, 3-(1-((3,5-dimethylisoxazol-4-yl)methyl)-1H-pyrazol-4-yl)-1-methylimidazolidine-2,4-dione]
0.08 µM				Cc1noc(C)c1Cn1cc(N2C(=O)N(Cc3ccc(F)cc3)C(C)(C)C2=O)cn1 [Example 12-29, 3-(1-((3,5-dimethylisoxazol-4-yl)methyl)-1H-pyrazol-4-yl)-1-(4-fluorobenzyl)-5,5-dimethylimidazolidine-2,4-dione]
		3.4 µM		Cc1noc(C)c1Cn1cc(NC(=O)c2cccn2C)cn1 [Example 4-49, N-(1-((3,5-dimethylisoxazol-4-yl)methyl)-1H-pyrazol-4-yl)-1-methyl-1H-pyrrole-2-carboxamide]
